What was measured:
CREBBP = CREBBP (Homo sapiens (Human), UniProt Q92793); assay: In vitro enzyme inhibition assay - CREBBP inhibition (AlphaScreen, biotinylated H4-tetraacetyl peptide); type: binding
Summary of the method: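 Displacement of 20 nM biotinylated tetraacetyl-H4 peptide from 50 nM E. coli-expressed His-CREBBP, measured by AlphaScreen after bead equilibration for 2 h.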

BRD4 = BRD4 (Homo sapiens (Human), UniProt O60885); assay: In vitro enzyme inhibition assay - BRD4 inhibition (as described in U.S. Pat. No. 9,034,900); type: binding; conditions: Table 29; BRD4 BD1
[1] = Table 28, AlphaScreen, H4-tetraacetyl peptide

Chain of CREBBP (Q92793 1081-1197): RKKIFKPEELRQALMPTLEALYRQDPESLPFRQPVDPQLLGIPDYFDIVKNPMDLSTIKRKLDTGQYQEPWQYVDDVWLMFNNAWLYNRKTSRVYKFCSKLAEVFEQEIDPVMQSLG

Row | Compound | IC50 (CREBBP; Table 29) | IC50 (BRD4) | IC50 (CREBBP; [1])
1 | CCS(=O)(=O)Nc1ncc(Oc2ccc(F)cc2F)c(-c2cc(C)c(=O)n(CC3CC3)c2)n1 | > 5000 nM | < 500 nM | –
2 | Cc1cccc(Cl)c1Oc1nc(NS(=O)(=O)C(C)C)cc(-c2cc(C)c(=O)n(C)c2)n1 [Example 3, Propane-2-sulfonic acid [2-(2-chloro-6-methyl-phenoxy)-6-(1,5-dimethyl-6-oxo-1,6-dihydro-pyridin-3-yl)-pyrimidin-4-yl]-amide] | < 500 nM | 500 to 5000 nM | < 500 nM
3 | COc1cccc(C#N)c1Oc1nc(NS(=O)(=O)C(C)C)cc(-c2cc(C)c(=O)n(C)c2)n1 [Example 11, Propane-2-sulfonic acid [2-(2-cyano-6-methoxy-phenoxy)-6-(1,5-dimethyl-6-oxo-1,6-dihydro-pyridin-3-yl)-pyrimidin-4-yl]-amide] | < 500 nM | > 5000 nM | < 500 nM
4 | CCCCS(=O)(=O)Nc1cc(-c2cc(C)c(=O)n(C)c2)nc(Oc2c(C)cccc2Cl)n1 [Example 14, Butane-1-sulfonic acid [2-(2-chloro-6-methyl-phenoxy)-6-(1,5-dimethyl-6-oxo-1,6-dihydro-pyridin-3-yl)-pyrimidin-4-yl]-amide] | < 500 nM | 500 to 5000 nM | < 500 nM
5 | CCCS(=O)(=O)Nc1cc(-c2cc(C)c(=O)n(C)c2)nn1C [Example 336, Propane-1-sulfonic acid [5-(1,5-dimethyl-6-oxo-1,6-dihydro-pyridin-3-yl)-2-methyl-2H-pyrazol-3-yl]-amide] | – | – | 500 to 5000 nM
6 | CCCCS(=O)(=O)Nc1cc(-c2ccc(=O)n(C)c2)nc(Oc2c(F)cccc2CC)n1 [Example 337, N-(2-(2-ethyl-6-fluorophenoxy)-6-(1-methyl-6-oxo-1,6-dihydropyridin-3-yl)pyrimidin-4-yl)butane-1-sulfonamide] | – | – | < 500 nM
7 | CCc1cccc(F)c1Oc1nc(NS(=O)(=O)C(C)CC)cc(-c2ccc(=O)n(C)c2)n1 (stereo not drawn) [Example 338, N-(2-(2-ethyl-6-fluorophenoxy)-6-(1-methyl-6-oxo-1,6-dihydropyridin-3-yl)pyrimidin-4-yl)butane-2-sulfonamide] | – | – | < 500 nM
8 | CCCS(=O)(=O)Nc1cc(-c2ccc(=O)n(C)c2)nc(Oc2c(F)cccc2CC)n1 [Example 339, N-(2-(2-ethyl-6-fluorophenoxy)-6-(1-methyl-6-oxo-1,6-dihydropyridin-3-yl)pyrimidin-4-yl)propane-1-sulfonamide] | – | – | < 500 nM
9 | CC(C)S(=O)(=O)Nc1cc(-c2ccc(=O)n(C)c2)nc(Oc2c(F)cccc2F)n1 [Example 340, N-(2-(2,6-difluorophenoxy)-6-(1-methyl-6-oxo-1,6-dihydropyridin-3-yl)pyrimidin-4-yl)propane-2-sulfonamide] | – | – | < 500 nM
10 | CCCS(=O)(=O)Nc1cc(-c2ccc(=O)n(C)c2)nc(Oc2c(F)cccc2F)n1 [Example 341, N-(2-(2,6-difluorophenoxy)-6-(1-methyl-6-oxo-1,6-dihydropyridin-3-yl)pyrimidin-4-yl)propane-1-sulfonamide] | – | – | < 500 nM
11 | CCCCS(=O)(=O)Nc1cc(-c2ccc(=O)n(C)c2)nc(Oc2c(F)cccc2F)n1 [Example 342, N-(2-(2,6-difluorophenoxy)-6-(1-methyl-6-oxo-1,6-dihydropyridin-3-yl)pyrimidin-4-yl)butane-1-sulfonamide] | – | – | < 500 nM
12 | CCCCS(=O)(=O)Nc1cc(-c2ccc(=O)n(C)c2)nc(Oc2c(C)cc(F)cc2F)n1 [Example 343, N-(2-(2,4-difluoro-6-methylphenoxy)-6-(1-methyl-6-oxo-1,6-dihydropyridin-3-yl)pyrimidin-4-yl)butane-1-sulfonamide] | – | – | < 500 nM
13 | CCCS(=O)(=O)Nc1cc(-c2ccc(=O)n(C)c2)nc(Oc2c(C)cc(F)cc2F)n1 [Example 344, N-(2-(2,4-difluoro-6-methylphenoxy)-6-(1-methyl-6-oxo-1,6-dihydropyridin-3-yl)pyrimidin-4-yl)propane-1-sulfonamide] | – | – | < 500 nM
14 | CCC(C)S(=O)(=O)Nc1cc(-c2ccc(=O)n(C)c2)nc(Oc2c(C)cc(F)cc2F)n1 (stereo not drawn) [Example 345, N-(2-(2,4-difluoro-6-methylphenoxy)-6-(1-methyl-6-oxo-1,6-dihydropyridin-3-yl)pyrimidin-4-yl)butane-2-sulfonamide] | – | – | < 500 nM
15 | Cc1cc(F)cc(F)c1Oc1nc(NS(=O)(=O)C(C)C)cc(-c2ccc(=O)n(C)c2)n1 [Example 346, N-(2-(2,4-difluoro-6-methylphenoxy)-6-(1-methyl-6-oxo-1,6-dihydropyridin-3-yl)pyrimidin-4-yl)propane-2-sulfonamide] | – | – | < 500 nM
16 | CCCCS(=O)(=O)Nc1cc(-c2ccc(=O)n(C)c2)nc(Oc2c(C)ccc(F)c2F)n1 [Example 347, N-(2-(2,3-difluoro-6-methylphenoxy)-6-(1-methyl-6-oxo-1,6-dihydropyridin-3-yl)pyrimidin-4-yl)butane-1-sulfonamide] | – | – | < 500 nM

Row | Compound | IC50 (CREBBP; Table 29) | IC50 (BRD4) | IC50 (CREBBP; [1])
17 | CCCS(=O)(=O)Nc1cc(-c2ccc(=O)n(C)c2)nc(Oc2c(C)ccc(F)c2F)n1 [Example 348, N-(2-(2,3-difluoro-6-methylphenoxy)-6-(1-methyl-6-oxo-1,6-dihydropyridin-3-yl)pyrimidin-4-yl)propane-1-sulfonamide] | – | – | < 500 nM
18 | CCC(C)S(=O)(=O)Nc1cc(-c2ccc(=O)n(C)c2)nc(Oc2c(C)ccc(F)c2F)n1 (stereo not drawn) [Example 349, N-(2-(2,3-difluoro-6-methylphenoxy)-6-(1-methyl-6-oxo-1,6-dihydropyridin-3-yl)pyrimidin-4-yl)butane-2-sulfonamide] | – | – | < 500 nM
19 | CCCCS(=O)(=O)Nc1cc(-c2ccc(=O)n(C)c2)nc(Oc2c(F)ccc(F)c2C)n1 [Example 350, N-(2-(3,6-difluoro-2-methylphenoxy)-6-(1-methyl-6-oxo-1,6-dihydropyridin-3-yl)pyrimidin-4-yl)butane-1-sulfonamide] | – | – | < 500 nM
20 | CCC(C)S(=O)(=O)Nc1cc(-c2ccc(=O)n(C)c2)nc(Oc2c(F)ccc(F)c2C)n1 (stereo not drawn) [Example 351, N-(2-(3,6-difluoro-2-methylphenoxy)-6-(1-methyl-6-oxo-1,6-dihydropyridin-3-yl)pyrimidin-4-yl)butane-2-sulfonamide] | – | – | < 500 nM
21 | CCCCS(=O)(=O)Nc1nc(Oc2c(C)cccc2F)nc(-c2ccc(=O)n(C)c2)c1F [Example 352, N-(5-fluoro-2-(2-fluoro-6-methylphenoxy)-6-(1-methyl-6-oxo-1,6-dihydropyridin-3-yl)pyrimidin-4-yl)butane-1-sulfonamide] | – | – | < 500 nM
22 | CCCCS(=O)(=O)Nc1cc(-c2ccc(=O)n(C)c2)nc(OC2CCOCC2)n1 [Example 353, N-(6-(1-methyl-6-oxo-1,6-dihydropyridin-3-yl)-2-((tetrahydro-2H-pyran-4-yl)oxy)pyrimidin-4-yl)butane-1-sulfonamide] | – | – | < 500 nM
23 | CCCS(=O)(=O)Nc1cc(-c2ccc(=O)n(C)c2)nc(OC2CCOCC2)n1 [Example 354, N-(6-(1-methyl-6-oxo-1,6-dihydropyridin-3-yl)-2-((tetrahydro-2H-pyran-4-yl)oxy)pyrimidin-4-yl)propane-1-sulfonamide] | – | – | < 500 nM
24 | CC(C)Oc1nc(NS(=O)(=O)c2ccccc2)cc(-c2ccc(=O)n(C)c2)n1 [Example 355, N-(2-isopropoxy-6-(1-methyl-6-oxo-1,6-dihydropyridin-3-yl)pyrimidin-4-yl)benzenesulfonamide] | – | – | < 500 nM
25 | Cn1cc(-c2cc3nc(n2)Oc2cccc(c2)OCC=CCCS(=O)(=O)N3)ccc1=O [Example 356, 5-(10,10-dioxido-2,4-dioxa-10-thia-11-aza-1(2,4)-pyrimidina-3(1,3)-benzenacycloundecaphan-6-en-16-yl)-1-methylpyridin-2(1H)-one] | – | – | < 500 nM
26 | Cn1cc(-c2cc3nc(n2)Oc2cccc(c2)OCCCCCS(=O)(=O)N3)ccc1=O [Example 357, 5-(10,10-dioxido-2,4-dioxa-10-thia-11-aza-1(2,4)-pyrimidina-3(1,3)-benzenacycloundecaphane-1^6-yl)-1-methylpyridin-2(1H)-one] | – | – | < 500 nM
27 | Cn1cc(-c2cc3nc(n2)Oc2cccc(c2)OCCC=CCCS(=O)(=O)N3)ccc1=O [Example 358, 5-(11,11-dioxido-2,4-dioxa-11-thia-12-aza-1(2,4)-pyrimidina-3(1,3)-benzenacyclododecaphan-7-en-1^6-yl)-1-methylpyridin-2(1H)-one] | – | – | < 500 nM
28 | Cn1cc(-c2cc3nc(n2)Oc2cccc(c2)OCCCCCCS(=O)(=O)N3)ccc1=O [Example 359, 5-(11,11-dioxido-2,4-dioxa-11-thia-12-aza-1(2,4)-pyrimidina-3(1,3)-benzenacyclododecaphane-1^6-yl)-1-methylpyridin-2(1H)-one] | – | – | < 500 nM
29 | Cn1cc(-c2cc3nc(n2)Oc2cc(ccc2Cl)OCC=CCCS(=O)(=O)N3)ccc1=O [Example 360, 5-(36-chloro-10,10-dioxido-2,4-dioxa-10-thia-11-aza-1(2,4)-pyrimidina-3(1,3)-benzenacycloundecaphan-6-en-1^6-yl)-1-methylpyridin-2(1H)-one] | – | – | < 500 nM
30 | Cn1cc(-c2cc3nc(n2)Oc2cc(ccc2Cl)OCC=CCCCS(=O)(=O)N3)ccc1=O [Example 361, 5-(36-chloro-11,11-dioxido-2,4-dioxa-11-thia-12-aza-1(2,4)-pyrimidina-3(1,3)-benzenacyclododecaphan-6-en-1^6-yl)-1-methylpyridin-2(1H)-one] | – | – | < 500 nM
31 | Cn1cc(-c2cc3nc(n2)Oc2cc(ccc2F)OCC=CCCCS(=O)(=O)N3)ccc1=O [Example 362, 5-(36-fluoro-11,11-dioxido-2,4-dioxa-11-thia-12-aza-1(2,4)-pyrimidina-3(1,3)-benzenacyclododecaphan-6-en-1^6-yl)-1-methylpyridin-2(1H)-one] | – | – | < 500 nM
32 | Cc1sc2c(c1C)C(c1ccc(Cl)cc1)=N[C@@H](CC(=O)OC(C)(C)C)c1nnc(C)n1-2 [JQ-1, tert-butyl (S)-2-(4-(4-chlorophenyl)-2,3,9-trimethyl-6H-thieno[3,2-f][1,2,4]triazolo[4,3-a][1,4]diazepin-6-yl)acetate, reference compound] | > 5000 nM | – | –

Source: patent US10202360B2 (CELGENE QUANTICEL RESEARCH, INC., priority 2016, dated 2019)
